In ChEMBL document CHEMBL1909046, “DrugMatrix in vitro pharmacology data”:

Legend:
[1] = target: Beta-2 adrenergic receptor (Homo sapiens, UniProt P07550); test: DRUGMATRIX: Adrenergic beta2 radioligand binding (ligand: [3H] CGP-12177); format: cell membranes, CHO, Membrane; settings: Not Active = under 50% inhibition at 10 µM
[2] = target: Receptor tyrosine-protein kinase erbB-2 (Homo sapiens, UniProt P04626); test: biochemical; format: cell-based, Insect cells;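 also: inhibition of HER2 kinase enzyme activity, measured with Poly(Glu:Tyr) as the phosphorylation substrate; in other assays of this panel Not Active means under 50% inhibition at 10 µM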
Acetylcholinesterase = Acetylcholinesterase (Homo sapiens, UniProt P22303); test: DRUGMATRIX: Acetylcholinesterase enzyme inhibition (substrate: acetylthiocholine); format: cell-based, HEK293; settings: Not Active = under 50% inhibition at 10 µM
Chain of Acetylcholinesterase (P22303 whole entry): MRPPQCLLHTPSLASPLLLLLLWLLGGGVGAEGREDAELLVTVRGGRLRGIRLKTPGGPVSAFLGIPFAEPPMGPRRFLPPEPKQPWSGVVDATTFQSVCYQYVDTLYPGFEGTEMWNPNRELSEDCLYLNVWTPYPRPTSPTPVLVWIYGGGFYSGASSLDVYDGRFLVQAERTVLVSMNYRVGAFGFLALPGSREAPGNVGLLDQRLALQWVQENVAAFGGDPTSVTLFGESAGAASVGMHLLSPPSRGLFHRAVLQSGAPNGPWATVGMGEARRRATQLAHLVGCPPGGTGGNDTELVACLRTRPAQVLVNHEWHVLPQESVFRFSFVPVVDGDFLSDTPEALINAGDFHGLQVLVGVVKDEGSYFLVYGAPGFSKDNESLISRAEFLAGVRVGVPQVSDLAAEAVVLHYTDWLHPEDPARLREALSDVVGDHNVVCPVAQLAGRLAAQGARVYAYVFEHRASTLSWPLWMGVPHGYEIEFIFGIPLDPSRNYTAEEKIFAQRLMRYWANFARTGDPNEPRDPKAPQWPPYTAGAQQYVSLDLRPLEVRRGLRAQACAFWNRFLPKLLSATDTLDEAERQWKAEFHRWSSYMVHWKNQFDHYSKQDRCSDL

[3] = target: Mitogen-activated protein kinase 3 (Homo sapiens, UniProt P27361); test: DRUGMATRIX: Protein Serine/Threonine Kinase, ERK1 enzyme inhibition (substrate: Myelin Basic Protein); parameters: species or system Escherichia coli; settings: Not Active = under 50% inhibition at 10 µM
Chain of Mitogen-activated protein kinase 3 (P27361 whole entry): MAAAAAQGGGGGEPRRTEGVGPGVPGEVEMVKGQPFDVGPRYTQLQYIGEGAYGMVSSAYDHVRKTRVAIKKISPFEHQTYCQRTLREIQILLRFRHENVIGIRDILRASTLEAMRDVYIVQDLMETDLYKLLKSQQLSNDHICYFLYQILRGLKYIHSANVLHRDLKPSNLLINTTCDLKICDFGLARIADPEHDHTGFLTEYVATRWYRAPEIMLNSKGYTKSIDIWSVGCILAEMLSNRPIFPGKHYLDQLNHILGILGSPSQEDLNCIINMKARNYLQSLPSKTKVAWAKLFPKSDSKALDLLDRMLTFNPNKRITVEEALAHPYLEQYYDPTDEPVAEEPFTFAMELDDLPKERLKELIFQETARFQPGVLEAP

[4] = target: Mitogen-activated protein kinase 14 (Homo sapiens, UniProt Q16539); parameters: species or system Escherichia coli;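 also: inhibition of p38alpha enzyme activity in a biochemical kinase assay, with myelin basic protein serving as substrate; in other assays of this panel Not Active means under 50% inhibition at 10 µM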
Chain of Mitogen-activated protein kinase 14 (Q16539 whole entry): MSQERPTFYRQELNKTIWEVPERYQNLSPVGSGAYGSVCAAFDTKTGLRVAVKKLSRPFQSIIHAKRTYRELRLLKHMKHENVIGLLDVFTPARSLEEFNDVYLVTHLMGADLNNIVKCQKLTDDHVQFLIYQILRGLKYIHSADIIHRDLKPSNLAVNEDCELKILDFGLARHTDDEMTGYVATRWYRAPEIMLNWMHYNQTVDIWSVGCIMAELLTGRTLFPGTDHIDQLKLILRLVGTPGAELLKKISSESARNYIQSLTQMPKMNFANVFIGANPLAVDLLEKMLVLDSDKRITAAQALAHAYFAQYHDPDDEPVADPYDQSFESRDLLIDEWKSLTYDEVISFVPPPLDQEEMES

[5] = target: T1, Nitric oxide synthase, inducible (Mus musculus, UniProt P29477); parameters: species or system Escherichia coli;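 also: inhibition of iNOS enzyme activity measured with L-arginine as substrate; in other assays of this panel Not Active means under 50% inhibition at 10 µM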
T1 sequence (P29477 whole entry): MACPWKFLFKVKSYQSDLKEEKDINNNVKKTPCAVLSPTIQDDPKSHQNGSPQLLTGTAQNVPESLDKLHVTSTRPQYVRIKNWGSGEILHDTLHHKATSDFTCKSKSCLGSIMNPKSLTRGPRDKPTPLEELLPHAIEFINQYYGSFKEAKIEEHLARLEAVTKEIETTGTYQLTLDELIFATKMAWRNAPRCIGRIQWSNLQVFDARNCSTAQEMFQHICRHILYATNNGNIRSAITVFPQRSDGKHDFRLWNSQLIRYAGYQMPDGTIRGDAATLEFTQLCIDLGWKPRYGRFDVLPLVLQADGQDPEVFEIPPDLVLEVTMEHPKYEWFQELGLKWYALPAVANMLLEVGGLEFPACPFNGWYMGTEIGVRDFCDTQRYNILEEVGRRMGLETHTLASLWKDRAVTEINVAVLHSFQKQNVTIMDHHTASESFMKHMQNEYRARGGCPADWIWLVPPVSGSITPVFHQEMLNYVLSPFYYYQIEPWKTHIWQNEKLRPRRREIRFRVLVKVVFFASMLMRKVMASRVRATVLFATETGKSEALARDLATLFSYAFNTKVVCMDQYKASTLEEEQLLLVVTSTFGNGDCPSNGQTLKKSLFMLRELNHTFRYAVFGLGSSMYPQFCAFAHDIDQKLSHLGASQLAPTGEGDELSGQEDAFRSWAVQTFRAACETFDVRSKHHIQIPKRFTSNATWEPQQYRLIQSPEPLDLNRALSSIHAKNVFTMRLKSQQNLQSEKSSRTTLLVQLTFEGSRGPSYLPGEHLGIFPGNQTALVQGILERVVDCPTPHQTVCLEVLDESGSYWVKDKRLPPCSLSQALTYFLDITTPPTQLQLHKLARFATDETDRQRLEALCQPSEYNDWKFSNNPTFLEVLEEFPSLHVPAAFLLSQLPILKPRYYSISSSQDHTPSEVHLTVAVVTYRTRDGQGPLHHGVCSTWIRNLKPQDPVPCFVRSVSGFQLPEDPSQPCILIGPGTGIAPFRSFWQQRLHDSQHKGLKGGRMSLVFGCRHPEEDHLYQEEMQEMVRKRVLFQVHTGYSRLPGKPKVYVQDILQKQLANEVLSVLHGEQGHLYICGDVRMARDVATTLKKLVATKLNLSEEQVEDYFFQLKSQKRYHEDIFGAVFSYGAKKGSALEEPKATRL

[6] = target: 5-hydroxytryptamine receptor 4 (Cavia porcellus, UniProt O70528); format: cell membranes, Dunkin-Hartley, Striatum, Membrane; also: in other assays of this panel Not Active means under 50% inhibition at 10 µM
Chain of 5-hydroxytryptamine receptor 4 (O70528 whole entry): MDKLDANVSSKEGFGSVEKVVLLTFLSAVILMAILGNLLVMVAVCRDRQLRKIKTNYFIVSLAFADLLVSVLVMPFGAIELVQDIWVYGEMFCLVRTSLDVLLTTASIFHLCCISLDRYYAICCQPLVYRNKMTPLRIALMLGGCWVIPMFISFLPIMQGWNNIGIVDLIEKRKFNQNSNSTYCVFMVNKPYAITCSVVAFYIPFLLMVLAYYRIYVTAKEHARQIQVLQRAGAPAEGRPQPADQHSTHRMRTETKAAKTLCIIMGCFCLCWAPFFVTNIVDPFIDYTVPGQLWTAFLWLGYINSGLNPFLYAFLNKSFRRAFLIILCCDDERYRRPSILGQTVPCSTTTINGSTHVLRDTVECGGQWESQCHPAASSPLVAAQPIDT

CCCCC(=O)N(Cc1ccc(-c2ccccc2-c2nnn[nH]2)cc1)[C@H](C(=O)O)C(C)C
Not Active: IC50 ([1]; cho) | IC50 ([2]; insect cells) | IC50 (Acetylcholinesterase; hek293) | IC50 [3] | IC50 [4] | IC50 [5] | IC50 [6]

O=C(O)COc1ccc(C(=O)c2cccs2)c(Cl)c1Cl
Not Active: IC50 ([1]; cho) | IC50 ([2]; insect cells) | IC50 (Acetylcholinesterase; hek293) | IC50 [3] | IC50 [4] | IC50 [5] | IC50 [6]

CN1[C@@H]2CC[C@H]1C[C@@H](OC(c1ccccc1)c1ccccc1)C2 [BENZTROPINE]
Not Active: IC50 ([1]; cho) | IC50 ([2]; insect cells) | IC50 (Acetylcholinesterase; hek293) | IC50 [3] | IC50 [4] | IC50 [5] | IC50 [6]

C[C@@](Cc1ccc(O)c(O)c1)(NN)C(=O)O.O [CARBIDOPA]
Not Active: IC50 ([1]; cho) | IC50 ([2]; insect cells) | IC50 (Acetylcholinesterase; hek293) | IC50 [3] | IC50 [4] | IC50 [5] | IC50 [6]

CN1CCN(C2=Nc3cc(Cl)ccc3Nc3ccccc32)CC1 [CLOZAPINE]
Not Active: IC50 ([1]; cho) | IC50 ([2]; insect cells) | IC50 (Acetylcholinesterase; hek293) | IC50 [3] | IC50 [4] | IC50 [5] | IC50 [6]

CC(C)NC[C@@H](O)COc1cccc2ccccc12 [DEXPROPRANOLOL]
Not Active: IC50 ([2]; insect cells) | IC50 (Acetylcholinesterase; hek293) | IC50 [3] | IC50 [4] | IC50 [5] | IC50 [6]

CC(C)NC[C@H](O)COc1cccc2ccccc12 [LEVOPROPRANOLOL]
Not Active: IC50 ([2]; insect cells) | IC50 (Acetylcholinesterase; hek293) | IC50 [3] | IC50 [4] | IC50 [5] | IC50 [6]

O=C(O)CCCCC1CCSS1 (stereo not drawn) [LIPOIC ACID, ALPHA]
Not Active: IC50 ([1]; cho) | IC50 ([2]; insect cells) | IC50 (Acetylcholinesterase; hek293) | IC50 [3] | IC50 [4] | IC50 [5] | IC50 [6]

CN(C)C(=O)C(CCN1CCC(O)(c2ccc(Cl)cc2)CC1)(c1ccccc1)c1ccccc1 [LOPERAMIDE]
3.01 µM: IC50 ([1]; read-out: IC50)
2.07 µM: Ki ([1]; read-out: Ki)
Not Active: IC50 ([2]; insect cells) | IC50 (Acetylcholinesterase; hek293) | IC50 [3] | IC50 [4] | IC50 [5] | IC50 [6]

Clc1ccc(COC(Cn2ccnc2)c2ccc(Cl)cc2Cl)c(Cl)c1 (configuration not stated) [MICONAZOLE]
Not Active: IC50 ([1]; cho) | IC50 [3] | IC50 [4] | IC50 [5] | IC50 [6]
27.4 µM: IC50 ([2]; read-out: IC50)
18.7 µM: IC50 (Acetylcholinesterase; read-out: IC50)

Oc1ccc2c3c1O[C@H]1[C@@H](O)CC[C@@]4(O)[C@@H](C2)N(CC2CCC2)CC[C@]314 [NALBUPHINE]
Not Active: IC50 ([1]; cho) | IC50 ([2]; insect cells) | IC50 (Acetylcholinesterase; hek293) | IC50 [3] | IC50 [4] | IC50 [5] | IC50 [6]

C[C@]12C=CC(=O)C=C1CC[C@@H]1[C@@H]2C(=O)C[C@@]2(C)[C@H]1CC[C@]2(O)C(=O)CO [PREDNISONE]
Not Active: IC50 ([1]; cho) | IC50 ([2]; insect cells) | IC50 (Acetylcholinesterase; hek293) | IC50 [3] | IC50 [4] | IC50 [5] | IC50 [6]

OCCOCCN1CCN(C2=Nc3ccccc3Sc3ccccc32)CC1 [QUETIAPINE]
Not Active: IC50 ([1]; cho) | IC50 ([2]; insect cells) | IC50 (Acetylcholinesterase; hek293) | IC50 [3] | IC50 [4] | IC50 [5] | IC50 [6]

COC(=O)[C@H]1[C@H]2C[C@@H]3c4[nH]c5cc(OC)ccc5c4CCN3C[C@H]2C[C@@H](OC(=O)c2cc(OC)c(OC)c(OC)c2)[C@@H]1OC [RESERPINE]
Not Active: IC50 ([1]; cho) | IC50 ([2]; insect cells) | IC50 (Acetylcholinesterase; hek293) | IC50 [3] | IC50 [4] | IC50 [5] | IC50 [6]

O=C(O)c1ccccc1O [SALICYLIC ACID]
Not Active: IC50 ([1]; cho) | IC50 ([2]; insect cells) | IC50 (Acetylcholinesterase; hek293) | IC50 [3] | IC50 [4] | IC50 [5] | IC50 [6]

C[S+]([O-])c1ccc(-c2nc(-c3ccncc3)c(-c3ccc(F)cc3)[nH]2)cc1 (configuration not stated) [SB-203580]
10.6 µM: IC50 ([6]; read-out: IC50)
Not Active: IC50 ([1]; cho) | IC50 (Acetylcholinesterase; hek293) | IC50 [5]
1.76 µM: Ki ([6]; read-out: Ki)

CC1CCC(NC(=O)N(CCCl)N=O)CC1 (configuration not stated) [SEMUSTINE]
Not Active: IC50 ([1]; cho) | IC50 ([2]; insect cells) | IC50 (Acetylcholinesterase; hek293) | IC50 [3] | IC50 [4] | IC50 [5] | IC50 [6]

O=C1C[C@@H]2OCC=C3CN4CC[C@]56c7ccccc7N1[C@H]5[C@H]2[C@H]3C[C@H]46 [STRYCHNINE]
Not Active: IC50 ([1]; cho) | IC50 ([2]; insect cells) | IC50 (Acetylcholinesterase; hek293) | IC50 [3] | IC50 [4] | IC50 [5] | IC50 [6]

C[N+](C)(C)CCOC(=O)CCC(=O)OCC[N+](C)(C)C.[Cl-].[Cl-] [SUCCINYLCHOLINE CHLORIDE]
Not Active: IC50 ([1]; cho) | IC50 ([2]; insect cells) | IC50 (Acetylcholinesterase; hek293) | IC50 [3] | IC50 [4] | IC50 [5] | IC50 [6]

Nc1ccc(S(=O)(=O)NC(=O)c2ccccc2)cc1 [SULFABENZAMIDE]
Not Active: IC50 ([1]; cho) | IC50 ([2]; insect cells) | IC50 (Acetylcholinesterase; hek293) | IC50 [3] | IC50 [4] | IC50 [5] | IC50 [6]

CCCCCCCCNC(C)C(O)c1ccc(SC(C)C)cc1 (configuration not stated) [SULOCTIDIL]
Not Active: IC50 ([1]; cho) | IC50 ([2]; insect cells) | IC50 (Acetylcholinesterase; hek293) | IC50 [3] | IC50 [4] | IC50 [5] | IC50 [6]

O=c1[nH]c(=O)n(C2CCCO2)cc1F (configuration not stated) [TEGAFUR]
Not Active: IC50 ([1]; cho) | IC50 ([2]; insect cells) | IC50 (Acetylcholinesterase; hek293) | IC50 [3] | IC50 [4] | IC50 [5] | IC50 [6]

CC(=N)S [THIOACETAMIDE]
Not Active: IC50 ([1]; cho) | IC50 ([2]; insect cells) | IC50 (Acetylcholinesterase; hek293) | IC50 [3] | IC50 [4] | IC50 [5] | IC50 [6]

Cc1ccc(C(=O)c2ccc(CC(=O)O)n2C)cc1 [TOLMETIN]
Not Active: IC50 ([1]; cho) | IC50 ([2]; insect cells) | IC50 (Acetylcholinesterase; hek293) | IC50 [3] | IC50 [4] | IC50 [5] | IC50 [6]

CC(=O)OCC(COC(C)=O)OC(C)=O [TRIACETIN]
Not Active: IC50 ([1]; cho) | IC50 ([2]; insect cells) | IC50 (Acetylcholinesterase; hek293) | IC50 [3] | IC50 [4] | IC50 [5] | IC50 [6]

CN1CCN(CCCN2c3ccccc3Sc3ccc(C(F)(F)F)cc32)CC1 [TRIFLUOPERAZINE]
Not Active: IC50 ([1]; cho) | IC50 ([2]; insect cells) | IC50 (Acetylcholinesterase; hek293) | IC50 [3] | IC50 [4] | IC50 [5] | IC50 [6]

TRANSPLATIN
Not Active: IC50 ([1]; cho) | Ki ([1]; cho) | IC50 ([2]; insect cells) | Ki ([2]; insect cells) | IC50 (Acetylcholinesterase; hek293) | Ki (Acetylcholinesterase; hek293) | IC50 [3] | Ki [3] | IC50 [4] | Ki [4] | IC50 [5] | Ki [5] | IC50 [6] | Ki [6]

ZIRCONIUM(IV) CHLORIDE
Not Active: IC50 ([1]; cho) | Ki ([1]; cho) | IC50 ([2]; insect cells) | Ki ([2]; insect cells) | IC50 (Acetylcholinesterase; hek293) | Ki (Acetylcholinesterase; hek293) | IC50 [3] | Ki [3] | IC50 [4] | Ki [4] | IC50 [5] | Ki [5] | IC50 [6] | Ki [6]
